From ChEMBL document CHEMBL3046401, “Synthesis, X-ray structure and antiproliferative activity of 3-benzylthio-4-propargylselenoquinoline” (2010)
Values after ≈ are worked out from the molar mass of the structure shown.

Tests used:
Format in all cases: functional
Settings in all cases: read-out: ID50 (the source's name)
[1] = Antiproliferative activity against Homo sapiens (human) HCV29T cells by SRB assay
[2] = Antiproliferative activity against Homo sapiens (human) SW707 cells by SRB assay
[3] = test system: A549; assay: Antiproliferative activity against Homo sapiens (human) A549 cells by SRB assay
[4] = test system: T47D; assay: Antiproliferative activity against Homo sapiens (human) T47D cells by SRB assay

| Compound | IC50 [1] | IC50 [2] | IC50 [3] | IC50 [4] |
| --- | --- | --- | --- | --- |
| C#CC[Se]c1c(SCc2ccccc2)cnc2ccccc12 [3-BENZYLTHIO-4-PROPARGYLSELENOQUINOLINE] | > 100 mg/L | > 100 mg/L | > 100 mg/L | > 100 mg/L |
| C#CC[Se]c1c(SC)cnc2ccccc12 [3-METHYLTHIO-4-PROPARGYLSELENOQUINOLINE] | 1.8 mg/L (≈ 6.16 µM) | 0.6 mg/L (≈ 2.05 µM) |  | 2.5 mg/L (≈ 8.55 µM) |
| C#CCSc1c(SC)cnc2ccccc12 [3-METHYLTHIO-4-PROPARGYLTHIOQUINOLINE] | 5.7 mg/L (≈ 23.2 µM) | 17.6 mg/L (≈ 71.7 µM) | 6.8 mg/L (≈ 27.7 µM) | 18.4 mg/L (≈ 75 µM) |
